Data taken from PMC8246850, “Functional selective FPR1 signaling in favor of an activation of the neutrophil superoxide generating NOX2 complex” (Journal of Leukocyte Biology, 2020).

Biological target: T1, FPR1 (Homo sapiens, UniProt P21462)
T1 sequence (P21462 1-350): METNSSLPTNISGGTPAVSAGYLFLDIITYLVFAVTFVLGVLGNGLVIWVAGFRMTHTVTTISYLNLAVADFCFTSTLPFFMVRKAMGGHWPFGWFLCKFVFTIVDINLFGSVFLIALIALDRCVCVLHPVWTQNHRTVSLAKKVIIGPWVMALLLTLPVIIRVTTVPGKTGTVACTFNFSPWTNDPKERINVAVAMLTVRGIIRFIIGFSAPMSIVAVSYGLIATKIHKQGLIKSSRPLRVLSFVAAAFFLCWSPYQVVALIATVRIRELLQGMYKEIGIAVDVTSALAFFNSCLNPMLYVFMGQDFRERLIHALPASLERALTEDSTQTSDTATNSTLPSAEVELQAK
Assay: human neutrophil NADPH-oxidase (superoxide) and Ca2+ assays with FPR1/FPR2 antagonists and cross-desensitization; weak β-arrestin recruitment in FPR1 CHO cells
Type: cell-based

Substance: RE-04-001
- EC50: ~1 nM
